Drawing on patent US9549558B2, “Herbicidal azines” (BASF SE, priority 2012, dated 2017), this text covers herbicidal activity for 28 compounds.

Holding throughout (format): in vivo
The test system of experiment [1] is AMARE (Amaranthus retroflexus). In words: greenhouse pre-emergence herbicidal test. The source says:
(§1) The seeds of the test plants were sown separately for each species. For the pre-emergence treatment, the active ingredients, which had been suspended or emulsified in water, were applied directly after sowing by means of finely distributing nozzles. The containers were irrigated gently to promote germination and growth and subsequently covered with transparent plastic hoods until the plants had rooted. This cover caused uniform germination of the test plants, unless this had been impaired by the active ingredients. Depending on the species, the plants were kept at 10-25° C. or 20-35° C., respectively. The test period extended over 2 to 4 weeks. During this time, the plants were tended, and their response to the individual treatments was evaluated. […] A moderate herbicidal activity is given at values of at least 60, a good herbicidal activity is given at values of at least 70, and a very good herbicidal activity is given at values of at least 85. The plants used in the greenhouse experiments were of the following species: [table]

Experiment [2] deals with AMARE (Amaranthus retroflexus). In words: greenhouse post-emergence herbicidal test. As to conditions: 0.031 kg/ha. An excerpt: (§2) The culture containers used were plastic flowerpots containing loamy sand with approximately 3.0% of humus as the substrate. The seeds of the test plants were sown separately for each species.
For the post-emergence treatment, the test plants were first grown to a height of 3 to 15 cm, depending on the plant habit, and only then treated with the active ingredients which had been suspended or emulsified in water. For this purpose, the test plants were either sown directly and grown in the same containers, or they were first grown separately as seedlings and transplanted into the test containers a few days prior to treatment.
(§3) Depending on the species, the plants were kept at 10-25° C. or 20-35° C., respectively.
(§4) The test period extended over 2 to 4 weeks. During this time, the plants were tended, and their response to the individual treatments was evaluated.
(§5) Evaluation was carried out using a scale from 0 to 100. 100 means no emergence of the plants, or complete destruction of at least the aerial moieties, and 0 means no damage, or normal course of growth. A moderate herbicidal activity is given at values of at least 60, a good herbicidal activity is given at values of at least 70, and a very good herbicidal activity is given at values of at least 85.
(§6) The plants used in the greenhouse experiments were of the following species: […]

The test system of experiment [3] is CAPBP (Capsella bursa-pastoris). In words: greenhouse pre-emergence herbicidal test. The following applies: 0.125 kg/ha, CAPBP.
From the text: as §2
(§7) For the pre-emergence treatment, the active ingredients, which had been suspended or emulsified in water, were applied directly after sowing by means of finely distributing nozzles. The containers were irrigated gently to promote germination and growth and subsequently covered with transparent plastic hoods until the plants had rooted. This cover caused uniform germination of the test plants, unless this had been impaired by the active ingredients.
as §3, §4, §5, §6

The subject of the next experiment is STEME (Stellaria media). In words: greenhouse pre-emergence herbicidal test.
From the text: as §2, §7, §3, §4, §5, §6

For experiment [4], the system named is ABUTH (Abutilon theophrasti). In words: greenhouse pre-emergence herbicidal test.
From the text: as §1

The test system of experiment [5] is ECHCG (Echinocloa crus-galli). The experiment in a line: greenhouse pre-emergence herbicidal test.
From the text: as §2, §7, §3, §4, §5, §6

For `CC(C#N)c1nc(N)nc(Nc2c(F)c(F)c(F)c(F)c2F)n1` (centres unmarked) [Example 5], in experiment [1] (0.125 kg/ha), the herbicidal activity result was “very good (a very good herbicidal activity is given at values of at least 85)”.

For `CC(C)(F)c1nc(N)nc(Nc2c(F)cccc2Br)n1` [Example 31], the herbicidal activity result in experiment [2] is reported as “very good (a very good herbicidal activity is given at values of at least 85)”.

In the case of `CC(C)(F)c1nc(N)nc(Nc2c(Br)cc(F)c(F)c2F)n1` [Example 34], the herbicidal activity result (in experiment [3]; in the experiment with STEME (Stellaria media) (0.125 kg/ha)) was “very good (a very good herbicidal activity is given at values of at least 85)” each time.

With `Cc1cccc(F)c1Nc1nc(N)nc(C(C)(C)F)n1` [Example 41], the herbicidal activity entry in experiment [1] (0.031 kg/ha) was “good (a good herbicidal activity is given at values of at least 70)”.

Take `COc1cccc(F)c1Nc1nc(N)nc(C(C)(C)F)n1` [Example 42]: the herbicidal activity entry in experiment [1] (0.0625 kg/ha) was “very good (a very good herbicidal activity is given at values of at least 85)”.

Turning to `COc1ccc(F)c(Nc2nc(N)nc(C(C)(C)F)n2)c1F` [Example 43], in experiment [2], the herbicidal activity result is “good (a good herbicidal activity is given at values of at least 70)”.

On to `CCOc1ccc(F)c(Nc2nc(N)nc(C(C)(C)F)n2)c1F` [Example 44], for which the herbicidal activity result in experiment [1] (0.125 kg/ha) and in experiment [4] (0.125 kg/ha) was “very good (a very good herbicidal activity is given at values of at least 85)” each time.

As for `COc1cccc(OC)c1Nc1nc(N)nc(C(C)(C)F)n1` [Example 47], the herbicidal activity result in experiment [1] (0.125 kg/ha) is given as “very good (a very good herbicidal activity is given at values of at least 85)”.

In the case of `CCCC(F)(CC)c1nc(N)nc(Nc2c(F)c(F)c(F)c(F)c2F)n1` (centres unmarked) [Example 50], the herbicidal activity entry (in experiment [3]; in the experiment with STEME (Stellaria media) (0.125 kg/ha)) was “very good (a very good herbicidal activity is given at values of at least 85)” each time.

As for `CC(C)c1nc(N)nc(Nc2c(F)cccc2F)n1` [Example 66], in experiment [1] (62.5 g/ha), the herbicidal activity entry is “very good (a very good herbicidal activity is given at values of at least 85)”.

For the compound `CC(C)c1nc(N)nc(Nc2c(F)ccc(Cl)c2F)n1` [Example 67], the herbicidal activity entry is recorded as “very good (a very good herbicidal activity is given at values of at least 85)” in experiment [1] (125 g/ha) and “good (a good herbicidal activity is given at values of at least 70)” in experiment [4] (125 g/ha).

Consider `Nc1nc(CC(F)(F)F)nc(Nc2c(F)c(F)c(F)c(F)c2F)n1` [Example 72], for which the herbicidal activity result in experiment [1] (125 g/ha) and in experiment [4] (125 g/ha) was “very good (a very good herbicidal activity is given at values of at least 85)” throughout.

For the compound `Nc1nc(Nc2c(F)c(F)c(F)c(F)c2F)nc(C(F)F)n1` [Example 121], the herbicidal activity result in experiment [1] (250 g/ha) and in experiment [4] (250 g/ha) was “very good (a very good herbicidal activity is given at values of at least 85)” in each case.

Consider `Nc1nc(Nc2c(F)ccc(F)c2F)nc(C(F)F)n1` [Example 123], for which the figures for the herbicidal activity result in experiment [1] (250 g/ha), in experiment [4] (250 g/ha) and in experiment [5] (250 g/ha) were “very good (a very good herbicidal activity is given at values of at least 85)”, “good (a good herbicidal activity is given at values of at least 70)” and “good (a good herbicidal activity is given at values of at least 70)”, respectively.

As to `CC=C(C)c1nc(N)nc(Nc2c(F)cccc2F)n1` [Example 124], the herbicidal activity entry in experiment [1] (1000 g/ha), in experiment [4] (1000 g/ha) and in experiment [5] (1000 g/ha) was “very good (a very good herbicidal activity is given at values of at least 85)” in each case.

For `CC(C)(C)c1nc(N)nc(Nc2c(F)cccc2C#N)n1` [Example 135], the herbicidal activity entry in experiment [1] (500 g/ha), in experiment [4] (500 g/ha) and in experiment [5] (500 g/ha) was “very good (a very good herbicidal activity is given at values of at least 85)” in each case.

As to `N#Cc1cccc(F)c1Nc1nc(N)nc(C(F)F)n1` [Example 149], in the experiment with STEME (Stellaria media) (250 g/ha), the herbicidal activity result is reported as “good (a good herbicidal activity is given at values of at least 70)”.

With `CC(F)c1nc(N)nc(Nc2c(F)c(F)c(Br)c(F)c2F)n1` (centres unmarked) [Example 180], the herbicidal activity result in experiment [1] (250 g/ha) and in experiment [4] (250 g/ha) was “very good (a very good herbicidal activity is given at values of at least 85)” each time.

As for `CC(C)(F)c1nc(N)nc(Nc2c(F)ccc([N+](=O)[O-])c2F)n1` [Example 189], the herbicidal activity result in experiment [1] (507 g/ha), in experiment [4] (507 g/ha) and in experiment [5] (507 g/ha) was “very good (a very good herbicidal activity is given at values of at least 85)” in each case.

With `Cc1cc(C)cc(Oc2cccc(F)c2Nc2nc(N)nc(C(C)(C)F)n2)c1` [Example 191], the herbicidal activity entry in experiment [1] (1000 g/ha), in experiment [4] (1000 g/ha) and in experiment [5] (1000 g/ha) was “very good (a very good herbicidal activity is given at values of at least 85)” throughout.

Take `CCC(C)c1nc(N)nc(Nc2c(F)c(F)cc(F)c2F)n1` (centres unmarked) [Example 193]: the herbicidal activity entry in experiment [1] (500 g/ha), in experiment [4] (500 g/ha) and in experiment [5] (500 g/ha) was “very good (a very good herbicidal activity is given at values of at least 85)” throughout.

Consider `CCC(C)(Cl)c1nc(N)nc(Nc2c(F)c(F)c(Br)c(F)c2F)n1` (centres unmarked) [Example 195], for which the figures for the herbicidal activity result in experiment [1] (500 g/ha), in experiment [4] (500 g/ha) and in experiment [5] (500 g/ha) were “very good (a very good herbicidal activity is given at values of at least 85)”, “good (a good herbicidal activity is given at values of at least 70)” and “good (a good herbicidal activity is given at values of at least 70)”, respectively.

In the case of `Nc1nc(CF)nc(Nc2c(F)c(F)cc(F)c2F)n1` [Example 198], the herbicidal activity entry in experiment [1] (119 g/ha) is “very good (a very good herbicidal activity is given at values of at least 85)”.

Turning to `CC=C(C)c1nc(N)nc(Nc2c(F)c(F)cc(F)c2F)n1` [Example 206], the herbicidal activity entry in experiment [1] (500 g/ha) is “very good (a very good herbicidal activity is given at values of at least 85)”.

Consider `CCC(C#N)(CC)c1nc(N)nc(Nc2c(F)c(F)cc(F)c2F)n1` [Example 219], for which the herbicidal activity result in experiment [1] (250 g/ha) and in experiment [4] (250 g/ha) was “very good (a very good herbicidal activity is given at values of at least 85)” throughout.

For the compound `COC(C)c1nc(N)nc(Nc2c(F)ccc(F)c2F)n1` (centres unmarked) [Example 228], the herbicidal activity result in experiment [1] (500 g/ha) and in experiment [4] (500 g/ha) was “very good (a very good herbicidal activity is given at values of at least 85)” in each case.

As for `Nc1nc(C2CCCC2)nc(N(C(=O)C2CCCC2)c2c(F)ccc(F)c2F)n1` [Example 302], the values for the herbicidal activity entry in experiment [1] (1000 g/ha), in experiment [4] (1000 g/ha) and in experiment [5] (1000 g/ha) were “very good (a very good herbicidal activity is given at values of at least 85)”, “good (a good herbicidal activity is given at values of at least 70)” and “very good (a very good herbicidal activity is given at values of at least 85)”, respectively.

As for `CCN(c1nc(N)nc(C(C)(C)F)n1)c1c(F)c(F)c(F)c(F)c1F` [Example 308], the herbicidal activity result in experiment [1] (125 g/ha) is reported as “very good (a very good herbicidal activity is given at values of at least 85)”.
